Source: patent US5723576A, “Thrombin inhibitors, the preparation thereof and the use thereof for therapeutical, prophylactic and diagnostic applications” (Development Biotechnological Processes S.N.C., priority 1993, dated 1998)
Read-outs that look alike come from different tables or passages of the source. Square brackets hold non-standard residues; d marks the D form. Peptide text beside a SMILES is read from it. 2Nal = N[C@@H](Cc1ccc2ccccc2c1)C(=O)O; hPhe = N[C@@H](CCc1ccccc1)C(=O)O; Cha = N[C@@H](CC1CCCCC1)C(=O)O; Chg = N[C@H](C(=O)O)C1CCCCC1; Aib = CC(C)(N)C(=O)O; βAla = NCCC(=O)O

Assays:
thrombin [1] = target: T1, thrombin (Homo sapiens, UniProt P00734); assay: Inhibition of thrombin-mediated hydrolysis of Chromozym TH (Ki); type: biochemical; conditions: read-out: Ki: hydrolysis inhibition constant of a chromogenic substrate
Method: Moreover, the efficacy of the products of the present invention was also evaluated determining the inhibition constants Ki versus thrombin, using chromogenic substrates.
The inhibition of the hydrolysis, mediated by thrombin, of Chromozym TH by the peptides of the present invention was evaluated according to the literature (Stone, S. R., Hofsteenge, J., Biochemistry, 25, 4622, (1986).
°The hydrolysis inhibition constants of a chromogenic substrate ar

thrombin [2] = target: T1, thrombin; conditions: non covalent 1:1 complex; read-out: Ki of hirudin binding to thrombin; cited from earlier work
human α-thrombin = tested on: T2, human α-thrombin; assay: In vitro resistance of the peptides to enzyme hydrolysis by thrombin; type: in vitro ADME; conditions: isolated enzyme thrombin; human a-thrombin, Tris/HCl buffer pH 7.8, 37° C.; read-out: τt: halving time of the inhibitor concentration in the presence of thrombin alone
T2 construct: human a-thrombin
Method: (§1) The resistance of the compounds of the present invention versus plasmatic proteases was evaluated in vitro in two groups of tests. In the first one, the resistance to proteolysis of thrombin itself was tested incubating the claimed compounds in the presence of thrombin and analysing the mixture at different times. In the second one, the claimed compounds were incubated in plasma of healthy volunteers and, after filtration of the plasma proteins, the supernatants were analyzed by HPLC and capillary electrophoresis.
(§2) In vitro determination of the peptide resistance to enzyme hydrolysis by thrombin.
(§3) 97.2 nmol of hirunorm-I (286 μg), hirunorm-II (285 μg), hirunorm-III (293 μg), were incubated separately with 0.972 nmol of human a-thrombin (35 μg, 3110 Units NIH/mg) in 800 μL of 0.05M Tris/HCl buffer, 0.1M NaCl at pH-7.8 and a temperature of 37° C. 50 μL Aliquots were diluted with 200 μL of 100 mN H3 PO4 and analyzed at pre-set times by capillary electrophoresis on a […] silica Waters capillary, using a Waters Quanta 4000 apparatus fitted with an UV detection at 214 nm. The analyses were carried out at a constant voltage of 18 KV, using a 100 mN phosphoric acid buffer for 25 min. The eluted peaks were collected and analyzed by Fab mass spectrometry.
(§4) ^.sctn. The factors tt and tp are the halving times (min) o
(§5) the inhibitor concentrations in the presence of equimolar amounts of
(§6) thrombin, respectively both alone and in human plasma.

[3] = In vitro resistance of the peptides to hydrolysis by plasma proteases; type: in vitro ADME; conditions: human plasma from healthy donors, 37° C.; read-out: τp: halving time of the inhibitor concentration in human plasma
Method: as §1
In vitro determination of the peptides resistance to hydrolysis by plasma proteases.
[…] of hirunorm-I […], hirunorm-II (569 μg), hirunorm-III (585 μg), were separately incubated with 1600 μL of human plasma from heal thy donors at 37° C. for different times. 50 μL aliquots were added with 200 μL of 100 mN H3 PO4. The supernatants were analyzed at pre-set times by HPLC on a Vydac C18 0.46×25 cm column with a straight acetonitrile gradient containing 0.1% (v/v) of trifluoroacetic acid (phase B) against 0.1% (v/v) aqueous trifluoroacetic acid (phase A), from 5 to 70% in B in 35 min at a flow rate of 1 mL/min, with detection at 210 nm. The eluted peaks were collected and analyzed by capillary electrophoresis on a […]×60 cm fused silica Waters capillary, fitted with a UV detector at 214 nm. The analyses were carried out at a constant voltage of 18 KV, using a buffer 100 mN acid phosphoric for 25 min. The eluted peaks were then analyzed by means of Fab mass spectrometry.
as §4, §5, §6

human a-thrombin = target: T3, human a-thrombin (Homo sapiens, UniProt P00734); assay: In vitro resistance of the peptides to enzyme hydrolysis by thrombin; type: in vitro ADME; conditions: Tris/HCl buffer pH 7.8, 37° C.
T3 construct: human a-thrombin
Method: as §1, §2, §3, §4, §5, §6

Row | Molecule | Ki (thrombin [1]) [nM] | Ki (thrombin [2]) [nM] | half-life at 121.5 µM (human α-thrombin) [h] | half-life at 1.21 µM [3] [h] | τt: halving time of the inhibitor concentration in the presence of thrombin alone (human a-thrombin) [min]
1 | CC[C@H](C)[C@H](NC(=O)[C@H](CCC(=O)O)NC(=O)[C@H](CCC(=O)O)NC(=O)[C@H](Cc1ccc(O)cc1)NC(=O)[C@H](CC(=O)O)NC(=O)CNC(=O)CNC(=O)[C@H](CCc1ccccc1)NC(=O)[C@H](Cc1c[nH]cn1)NC(=O)[C@H](CO)NC(=O)[C@H](CCC(=O)O)NC(=O)[C@@H]1CCCN1C(=O)CCNC(=O)CNC(=O)[C@@H](C)NC(=O)[C@H](CC(=O)O)NC(=O)[C@@H](NC(=O)[C@H](Cc1ccc2ccccc2c1)NC(=O)[C@H](CCCNC(=N)N)NC(=O)[C@@H](N)C1CCCCC1)[C@@H](C)O)C(=O)N1CCC[C@H]1C(=O)NC(C)(C)C(=O)NC(C)(C)C(=O)N[C@@H](Cc1ccc(O)cc1)C(=O)N[C@@H](CC1CCCCC1)C(=O)N[C@H](CCC(=O)O)C(=O)O [Hirunorm-IV] (H-[Chg]R[2Nal]TD[dA]G[βAla]PESH[hPhe]GGDYEEIP[Aib][Aib]Y[Cha][dE]-OH) | 2.6 |  |  |  | 
2 | Hirudin |  | 0.063 |  |  | 
3 | CC[C@H](C)[C@H](NC(=O)[C@H](CCC(=O)O)NC(=O)[C@H](CCC(=O)O)NC(=O)[C@H](Cc1ccc(O)cc1)NC(=O)[C@H](CC(=O)O)NC(=O)CNC(=O)CNC(=O)[C@H](CCc1ccccc1)NC(=O)[C@H](Cc1c[nH]cn1)NC(=O)[C@H](CO)NC(=O)[C@H](CCC(=O)O)NC(=O)[C@@H]1CCCN1C(=O)CCNC(=O)CNC(=O)[C@@H](C)NC(=O)[C@H](CC(=O)O)NC(=O)[C@@H](NC(=O)[C@H](Cc1ccc2ccccc2c1)NC(=O)[C@@H](NC(=O)[C@@H](N)C1CCCCC1)C(C)C)[C@@H](C)O)C(=O)N1CCC[C@H]1C(=O)NC(C)(C)C(=O)NC(C)(C)C(=O)N[C@@H](Cc1ccc(O)cc1)C(=O)N[C@@H](CC1CCCCC1)C(=O)N[C@H](CCC(=O)O)C(=O)O [Hirunorm-V] (H-[Chg]V[2Nal]TD[dA]G[βAla]PESH[hPhe]GGDYEEIP[Aib][Aib]Y[Cha][dE]-OH) | 1 |  |  |  | 
4 | CC[C@H](C)[C@H](N)C(=O)N[C@@H](CCCNC(=N)N)C(=O)N[C@@H](Cc1ccc(O)cc1)C(=O)N[C@H](C(=O)N[C@@H](CC(=O)O)C(=O)N[C@H](C)C(=O)NCCC(=O)NCCC(=O)N1CCC[C@H]1C(=O)N[C@@H](CCC(=O)O)C(=O)N[C@@H](CC(N)=O)C(=O)N[C@@H](Cc1c[nH]cn1)C(=O)N[C@@H](CC(N)=O)C(=O)N[C@@H](CC(N)=O)C(=O)NCC(=O)N[C@@H](CC(=O)O)C(=O)N[C@@H](Cc1ccccc1)C(=O)N[C@@H](CCC(=O)O)C(=O)N[C@@H](CCC(=O)O)C(=O)N[C@H](C(=O)N1CCC[C@H]1C(=O)NC(C)(C)C(=O)NC(C)(C)C(=O)N[C@@H](Cc1ccc(O)cc1)C(=O)N[C@@H](CC(C)C)C(=O)N[C@@H](CCC(=O)O)C(=O)O)[C@@H](C)CC)[C@@H](C)O [Hirunorm-I] (HELM PEPTIDE1{I.R.Y.T.D.[dA].[bAla].[bAla].P.E.N.H.N.N.G.D.F.E.E.I.P.[Aib].[Aib].Y.L.E}$$$$V2.0) | 97 |  | > 8 | 5 | 
5 | CC[C@H](C)[C@H](N)C(=O)N[C@@H](CCCNC(=N)N)C(=O)N[C@@H](Cc1ccccc1)C(=O)N[C@H](C(=O)N[C@@H](CC(=O)O)C(=O)N[C@H](C)C(=O)NCC(=O)NCCC(=O)N1CCC[C@H]1C(=O)N[C@@H](CCC(=O)O)C(=O)N[C@@H](CO)C(=O)N[C@@H](Cc1c[nH]cn1)C(=O)N[C@@H](CCc1ccccc1)C(=O)NCC(=O)NCC(=O)N[C@@H](CC(=O)O)C(=O)N[C@@H](Cc1ccc(O)cc1)C(=O)N[C@@H](CCC(=O)O)C(=O)N[C@@H](CCC(=O)O)C(=O)N[C@H](C(=O)N1CCC[C@H]1C(=O)NC(C)(C)C(=O)NC(C)(C)C(=O)N[C@@H](Cc1ccc(O)cc1)C(=O)N[C@@H](CC1CCCCC1)C(=O)N[C@H](CCC(=O)O)C(=O)O)[C@@H](C)CC)[C@@H](C)O [Hirunorm-II] (HELM PEPTIDE1{I.R.F.T.D.[dA].G.[bAla].P.E.S.H.[O=C([C@H](CCc1ccccc1)N[*:1])[*:2]].G.G.D.Y.E.E.I.P.[Aib].[Aib].Y.[Cha].[dE]}$$$$V2.0) | 2.6 |  |  | 8 | > 480
6 | CC[C@H](C)[C@H](N)C(=O)N[C@@H](CCCNC(=N)N)C(=O)N[C@@H](Cc1ccccc1)C(=O)N[C@H](C(=O)N[C@@H](CC(=O)O)C(=O)N[C@H](C)C(=O)NCC(=O)NCCC(=O)N1CCC[C@H]1C(=O)N[C@@H](CCC(=O)O)C(=O)N[C@@H](CO)C(=O)N[C@@H](Cc1c[nH]cn1)C(=O)N[C@@H](CCc1ccccc1)C(=O)NCC(=O)NCC(=O)N[C@@H](CC(=O)O)C(=O)N[C@@H](Cc1ccc(O)cc1)C(=O)N[C@@H](CCC(=O)O)C(=O)N[C@@H](CCC(=O)O)C(=O)N[C@H](C(=O)N1CCC[C@H]1C(=O)NC(C)(C)C(=O)NC(C)(C)C(=O)N[C@@H](Cc1ccc(OP(=O)(O)O)cc1)C(=O)N[C@@H](CC1CCCCC1)C(=O)N[C@H](CCC(=O)O)C(=O)O)[C@@H](C)CC)[C@@H](C)O [Hirunorm-III] (HELM PEPTIDE1{I.R.F.T.D.[dA].G.[bAla].P.E.S.H.[O=C([C@H](CCc1ccccc1)N[*:1])[*:2]].G.G.D.Y.E.E.I.P.[Aib].[Aib].[O=C([C@H](Cc1ccc(OP(=O)(O)O)cc1)N[*:1])[*:2]].[Cha].[dE]}$$$$V2.0) | 1 |  |  | 8 | > 480
